What was measured:
mGluR5 [1] = target: T1, mGluR5 (Rattus norvegicus, UniProt P31424); set-up: method as in Bradley et al., 2011; conditions: ref Bradley et al., 2011; cited from earlier work
mGluR5 [2] = target: T1, mGluR5; set-up: method as in Bradley et al., 2011; conditions: ref Bradley et al., 2011; cited from earlier work; remark: listed apart in the source
mGluR5 [3] = target: T1, mGluR5; experiment: Calcium mobilization (intracellular calcium levels) in primary cultures of rat cortical astrocytes; type: cell-based; conditions: for EC50: GET73 0 (absence)
Procedure: The experiments have been performed on primary cultures of rat cortical astrocytes. These cells express mGlu5Rs ([Zhang et al., 2005]).
Primary cultures of cerebral cortical astrocytes were obtained from newborn rats (1 or 2 days old). Briefly, cerebral cortices were removed and dissociated by mild trypsinization at 37°C, followed by mechanical trituration to obtain single cells. Cells were suspended in the culture medium [Gibco® DMEM, 5% inactivated fetal bovine serum (Thermo-Fisher Scientific, Waltham, MA, United States), 100 IU/ml penicillin, and 100 μg/ml streptomycin (all from Sigma-Aldrich, Milan, Italy)] and then seeded in 75-cm^2 flasks at a density of 3 × 10^6 cells/flask. The cells were incubated at 37°C in a humidified atmosphere, 5% CO2/95% air. The culture medium was replaced after 24 h and again twice weekly until astrocytes were grown to form a monolayer firmly attached to the bottom of the flask (12 or 14 days after dissection). At cell confluence, flasks were vigorously shaken to separate astrocytes (which remained adherent in the bottom of the flasks) from microglia and oligodendrocytes (which floated on the supernatant) ([Tomasini et al., 2015]). Collected astrocytes were counted and then plated in poly-L-lysine at a density of 50,000 cells/well or 96-well plates black, clear bottom plates (Corning®; Sigma-Aldrich, Milan, Italy).
Subsequently 100 μl/well of the same buffer were added for 10 min. […] After placing cell culture and compound plates into the FlexStation II (Molecular Devices, Sunnyvale, CA, United States), the on-line additions were carried out in a volume of 50 μl /well and fluorescence changes were continuously measured for 2 min at 37°C.
(§1) EC50 values were calculated using non-linear regression [curve fit, log(agonist) vs. response, variable slope, four parameters]. Statistical analysis (F-test) has been performed by using GraphPad Prism 6.0 (GraphPad Software Inc., San Diego, CA, United States). Statistical differences between group means for EC50 values were also assessed by ANOVA followed by Tukey’s multiple comparisons test. Data are reported as mean ± SEM of three independent experiments. A p-value < 0.05 was considered statistically significant.

mGluR5 [4] = target: T1, mGluR5; experiment: Inositol phosphate (phosphatidylinositol) turnover in rat hippocampus slices; type: cell-based; conditions: for Effect on L-quisqualate concentration-response curve, phosphatidylinositol turnover / Effect on CHPG (10 mM)-induced increase in phosphatidylinositol turnover / Effect on glutamate concentration-response curve, phosphatidylinositol turnover / EC50: rat hippocampus slices; for EC50: read-out: EC50 of L-quisqualate, phosphatidylinositol turnover
Procedure: The experiments have been performed on rat hippocampus slices. This preparation expresses mGlu5Rs ([Zhang et al., 2005]; [Purgert et al., 2014]).
On the day of the experiment, the animals were euthanized, their brain promptly isolated and 400 μm thick slices (15–20 mg each) were obtained from both the left and right hippocampi, by using a McIlwain tissue Chopper fresh tissue. The tissue was then allowed to equilibrate for 20 min at room temperature in Krebs’ solution (composition in mM: NaCl 118; KC1 4.4; CaC1_2 1.2; MgS0_4 1.2; KH2P0_4 1.2; NaHC0_3 25; glucose 10) and gassed with a mixture of 95% O2 plus 5% CO2 ([Ferraro et al., 2011]).
Slices were placed in test tubes containing 0.3 ml of oxygenated Krebs solution with myo-[^3H]inositol 0.3 μM (NEN, Boston, MA, United States). […] The reaction was stopped by washing each slice in ice cold Krebs solution containing LiCl 10 mM and by plunging it in 0.94 ml of chloroform-methanol (1:2 v/v). After 10 min, 310 μl of chloroform and 310 μl of water were added and the tubes were shaken for 20 min. The separation of [^3H]inositol phosphates was performed by ion-exchange chromatography on AG 1-X8 resin, 200–400 mesh (Bio-Rad, Hercules, CA, United States), using different elution solutions. The collected IP3-containing fraction was mixed with Safety-Solve cocktail (RPI, Mount Prospect, IL, United States) and the radioactivity was measured by scintillation counting.
as §1

mGluR5 [5] = target: T1, mGluR5; experiment: pCREB (Ser133) levels in primary cultures of rat cortical neurons; type: cell-based; conditions: for EC50: rat cerebral cortex neurons
Procedure: The experiments have been performed on primary cultures of rat cortical neurons. These cells express mGlu5Rs ([Koga et al., 2010]).
Primary cultures of cerebral cortical neurons were prepared from 1-day-old rats. Cortices free of meninges were dissociated in 0.025% (w/v) trypsin at 37°C followed by mechanical repeated gentle pipetting through wide- and narrow-bore fire-polished Pasteur pipettes in culture medium [Neurobasal medium (Gibco, Grand Island, NY, United States) supplemented with 0.1 mM glutamine (Sigma-Aldrich, Milan, Italy), 10 μg/ml gentamicin (Sigma-Aldrich, Milan, Italy) and 2% B-27® Supplement (50X), serum free (Gibco, Grand Island, NY, United States)]. Cells were counted and then plated on poly-L-lysine (5 μg/ml)-coated multiwells. Cytosine arabinoside (10 μM; Sigma-Aldrich, Milan, Italy) was added within 24 h of plating to prevent glial cell proliferation. After 8 days of in vitro incubation (days in vitro: DIV), cultures were used for experiments.
pCREB measurement was performed with the pCREB (Ser133) Assay kit (PerkinElmer Italy, Milan). Briefly, cortical neurons were seeded in 96 well tissue culture plates at a density of 4,000 cells/well and incubated at 37°C overnight. […] The lysates were transferred to a 96-well ½AreaPlate^TM for the assay. The Acceptor Mix was added for 1 h at room temperature and the Donor mix was added to wells under subdue light and incubate for 1 h at room temperature. At the end of this period, raw “AlphaScreen Signal counts” were measured by an Alpha Technology®-compatible plate reader, using standard AlphaLISA settings (excitation 680 nm, emission 615 nm).
as §1

[6] = system: dopamine, serotonin, GABA, ionotropic glutamate receptors, dopamine and serotonin reuptake systems; set-up: method as in Loche et al., 2012; conditions: ref Loche et al., 2012; cited from earlier work
hippocampal neurons = system: hippocampal neurons; set-up: method as in Tomasini et al., 2016; conditions: hippocampal neurons exposed to 0.1 to 10 μM; ref Tomasini et al., 2016; cited from earlier work
[7] = ref Haass-Koffler et al., cited from earlier work
alcohol intake = system: alcohol intake; set-up: method as in Loche et al., 2012; Ferraro et al., 2013; conditions: preclinical studies; ref Loche et al., 2012; Ferraro et al., 2013; cited from earlier work
mGluR5 [8] = system: mGluR5; set-up: method as in Nickols et al., 2016; conditions: ref Nickols et al., 2016; cited from earlier work
mGluR5 [9] = system: mGluR5; set-up: method as in Nickols et al., 2016; conditions: ref Nickols et al., 2016; cited from earlier work; remark: listed apart in the source

T1 sequence (P31424 21-875 limits assumed): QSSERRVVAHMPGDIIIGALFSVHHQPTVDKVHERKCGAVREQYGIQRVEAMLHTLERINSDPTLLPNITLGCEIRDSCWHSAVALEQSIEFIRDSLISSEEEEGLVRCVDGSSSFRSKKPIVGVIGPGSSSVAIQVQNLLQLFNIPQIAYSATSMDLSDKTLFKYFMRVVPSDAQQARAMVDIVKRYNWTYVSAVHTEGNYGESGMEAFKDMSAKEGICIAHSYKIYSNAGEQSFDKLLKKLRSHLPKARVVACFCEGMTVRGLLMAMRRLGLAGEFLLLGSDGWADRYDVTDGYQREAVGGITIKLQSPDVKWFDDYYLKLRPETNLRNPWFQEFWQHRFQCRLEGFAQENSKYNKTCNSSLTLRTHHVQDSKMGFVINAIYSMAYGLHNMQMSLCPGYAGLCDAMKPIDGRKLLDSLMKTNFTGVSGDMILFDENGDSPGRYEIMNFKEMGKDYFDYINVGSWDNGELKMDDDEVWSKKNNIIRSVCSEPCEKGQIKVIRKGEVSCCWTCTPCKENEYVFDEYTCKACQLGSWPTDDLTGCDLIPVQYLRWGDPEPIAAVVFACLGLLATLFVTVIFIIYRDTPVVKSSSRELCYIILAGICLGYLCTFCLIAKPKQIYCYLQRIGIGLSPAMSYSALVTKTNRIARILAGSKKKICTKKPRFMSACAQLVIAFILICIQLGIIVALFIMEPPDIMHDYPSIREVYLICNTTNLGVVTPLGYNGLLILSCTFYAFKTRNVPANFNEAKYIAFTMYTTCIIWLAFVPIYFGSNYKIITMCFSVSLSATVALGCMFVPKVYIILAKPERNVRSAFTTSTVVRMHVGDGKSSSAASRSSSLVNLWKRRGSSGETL

In the case of `COc1cccc(C#Cc2ccc(C)cn2)c1` [M-5MPEP], the “Inhibition of agonist-stimulated [3H]IP accumulation” value (mGluR5 [1]) is given as “partially inhibiting” and the “Inhibition of agonist-stimulated Ca++ oscillations” value (mGluR5 [2]) is given as “completely blocking”.
With `COCCCC(=O)NCc1ccc(C(F)(F)F)cc1` [GET73, N-[4-(trifluoromethyl)benzyl]-4-methoxybutyramide] the “Effect on CHPG concentration-response curve, intracellular calcium” value (mGluR5 [3]; GET73 0.1 nM–10 μM) was “significant rightward shift”, the “Effect on L-quisqualate concentration-response curve, intracellular calcium” value (mGluR5 [3]; GET73 0.1 nM–10 μM) was “failed to significantly modify” and the “Effect on glutamate concentration-response curve, intracellular calcium” value (mGluR5 [3]; GET73 10 nM–10 μM) was “significant rightward shift”. The “Effect on glutamate concentration-response curve, intracellular calcium” value (mGluR5 [3]; GET73 0.1 and 1 nM) was “ineffective”, the “Agonistic effect on intracellular calcium levels (calcium transient)” value (mGluR5 [3]; GET73 alone, 0.1 nM–10 μM) was “ineffective” and the “Effect on L-quisqualate concentration-response curve, phosphatidylinositol turnover” value (mGluR5 [4]; GET73 10 nM–10 μM) was “significant rightward shift”. For the same compound, the “Effect on CHPG (10 mM)-induced increase in phosphatidylinositol turnover” value (mGluR5 [4]; GET73 100 nM, 1 μM and 10 μM) was “significant reduction”, the “Effect on glutamate concentration-response curve, phosphatidylinositol turnover” value (mGluR5 [4]; GET73 100 nM–10 μM) was “significant rightward shift” and the “Effect on L-quisqualate concentration-response curve, phosphatidylinositol turnover” value (mGluR5 [4]; GET73 0.1 and 1 nM) was “ineffective”. For the same compound, the “Effect on glutamate concentration-response curve, phosphatidylinositol turnover” value (mGluR5 [4]; GET73 0.1 and 1 nM) was “ineffective”, the “Effect on CHPG (10 mM)-induced increase in phosphatidylinositol turnover” value (mGluR5 [4]; GET73 0.1–10 nM) was “ineffective” and the “Agonistic effect on phosphatidylinositol turnover” value (mGluR5 [4]; GET73 alone, 0.1 nM–100 μM, rat hippocampal slices) was “failed to modify”. The “Effect on glutamate concentration-response curve, pCREB” value (mGluR5 [5]; GET73 10 nM–10 μM, rat cortical neurons) was “significant rightward shift”, the “Effect on CHPG concentration-response curve, pCREB” value (mGluR5 [5]; GET73 100 nM–10 μM, rat cortical neurons) was “significant rightward shift” and the “Effect on glutamate concentration-response curve, pCREB” value (mGluR5 [5]; GET73 0.1 and 1 nM, rat cortical neurons) was “ineffective”. For the same compound, the “Effect on CHPG concentration-response curve, pCREB” value (mGluR5 [5]; GET73 0.1–10 nM, rat cortical neurons) was “ineffective”, the “Effect on L-quisqualate concentration-response curve, pCREB” value (mGluR5 [5]; GET73 0.1–100 nM, rat cortical neurons) was “ineffective” and the “Effect on L-quisqualate concentration-response curve, pCREB” value (mGluR5 [5]; GET73 1 and 10 μM, rat cortical neurons) was “significant rightward shift”. The “Agonistic effect on pCREB levels” value (mGluR5 [5]; GET73 alone, 0.1 nM–10 μM, rat cortical neurons) was “ineffective”, the “Affinity for a series of biological targets” value [6] was “did not show affinity” and the Neurotoxicity (hippocampal neurons) was “no signs of neurotoxicity”. The Safety and tolerability ([7]; Phase 1 clinical studies, healthy volunteers and alcohol-dependent patients, 2017a,b) was “safe and well-tolerated”, the CNS side effects ([7]; two Phase I clinical trials in healthy volunteers and ongoing Phase 1b/2a study in alcohol dependent subjects, 2017a) was “did not induce any CNS side effects” and the Alcohol intake (alcohol intake) was “reduce alcohol intake”.
In the case of `NC(C(=O)O)c1cc(O)ccc1Cl` (racemic) [CHPG, (RS)-2-Chloro-5-hydroxyphenylglycine], the EC50 (mGluR5 [3]; read-out: EC50 of CHPG, intracellular calcium levels) is reported as 1300 ± 90 µM, the Phosphatidylinositol turnover (mGluR5 [4]; CHPG at the higher concentration tested (10 mM), rat hippocampal slices, p < 0.05) is reported as 127 ± 4 % of basal levels and the EC50 (mGluR5 [5]; GET73 0 (absence), read-out: EC50 of CHPG, pCREB levels) is reported as 1000 ± 90 µM. For the same compound, the EC50 (mGluR5 [5]; in the presence of GET73 0.1 nM, read-out: EC50 of CHPG, pCREB levels) was 1000 ± 80 µM, the EC50 (mGluR5 [5]; in the presence of GET73 1 nM, read-out: EC50 of CHPG, pCREB levels) was 900 ± 40 µM and the EC50 (mGluR5 [5]; in the presence of GET73 10 nM, read-out: EC50 of CHPG, pCREB levels) was 1400 ± 120 µM. It also gave an EC50 (mGluR5 [5]; in the presence of GET73 100 nM, read-out: EC50 of CHPG, pCREB levels) of 5000 ± 290 µM.
Compound `N[C@@H](Cn1oc(=O)[nH]c1=O)C(=O)O` [L-quisqualate, (L)-(+)-α-Amino-3,5-dioxo-1,2,4-oxadiazolidine-2-propanoic acid] has an EC50 (mGluR5 [3]; read-out: EC50 of L-quisqualate, intracellular calcium levels) of 0.0031 ± 0.00036 µM, an EC50 (mGluR5 [4]; GET73 0 (absence)) of 40 ± 2.37 µM and an EC50 (mGluR5 [4]; in the presence of GET73 0.1 nM) of 33 ± 1.57 µM. The EC50 (mGluR5 [4]; in the presence of GET73 1 nM) was 40 ± 1.44 µM, the EC50 (mGluR5 [4]; in the presence of GET73 10 nM) was 110 ± 9.5 µM and the EC50 (mGluR5 [4]; in the presence of GET73 100 nM) was 200 ± 11.1 µM. For the same compound, the EC50 (mGluR5 [4]; in the presence of GET73 1 μM) was 320 ± 15.7 µM, the EC50 (mGluR5 [4]; in the presence of GET73 10 μM) was 200 ± 12.6 µM and the EC50 (mGluR5 [5]; GET73 0 (absence), read-out: EC50 of L-quisqualate, pCREB levels) was 0.0088 ± 0.00068 µM. The EC50 (mGluR5 [5]; in the presence of GET73 0.1 nM, read-out: EC50 of L-quisqualate, pCREB levels) was 0.009 ± 0.00091 µM, the EC50 (mGluR5 [5]; in the presence of GET73 1 nM, read-out: EC50 of L-quisqualate, pCREB levels) was 0.0074 ± 0.00066 µM and the EC50 (mGluR5 [5]; in the presence of GET73 10 nM, read-out: EC50 of L-quisqualate, pCREB levels) was 0.0085 ± 0.00052 µM. The EC50 (mGluR5 [5]; in the presence of GET73 100 nM, read-out: EC50 of L-quisqualate, pCREB levels) was 0.011 ± 0.00096 µM, the EC50 (mGluR5 [5]; in the presence of GET73 1 μM, read-out: EC50 of L-quisqualate, pCREB levels) was 0.022 ± 0.00172 µM and the EC50 (mGluR5 [5]; in the presence of GET73 10 μM, read-out: EC50 of L-quisqualate, pCREB levels) was 0.016 ± 0.00044 µM.
For `CCN(CC)C(=O)c1ccc(C#Cc2cccc(F)c2)cn1` [VU0477573], the “Inhibition of agonist-mediated intracellular Ca++ release” value (mGluR5 [8]) is given as “only partially inhibited” and the “Inhibition of ERK1/2 phosphorylation” value (mGluR5 [9]) is given as “fully inhibited”.

Source: paper PMC5895880 (Frontiers in Pharmacology, 2018)
